Measurements taken from US9856279B2 (AGIOS PHARMACEUTICALS, INC, priority 2011, dated 2018).
pIC50: −log10 of the molar value.

Experiments:
[1] = target: IDH1 R132H (Homo sapiens, UniProt O75874, R132H); assay: Assay for IDH1 R132H inhibitors (NADPH/aKG, resazurin detection); type: biochemical; details: enzyme assay of Example 12; read-out: IDH1R132H IC50
Summary of the method: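 Read-out is resorufin fluorescence (Ex544/Em590) 5 min after adding a 30 μM resazurin detection mix. Before that, mutant enzyme (0.2 μg/ml in its mix) ran 50 min at room temperature with compound, 8 uM NADPH and 2 mM aKG (mix levels) in Tris pH 7.5 with NaCl, MgCl2, BSA.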

[2] = tested on: HT1080 cells; assay: Cellular assay for IDH1m inhibitors: inhibition of 2-HG production (LC-MS, 48 hours) in HT1080 cells; type: cell-based; details: Homo sapiens, HT-1080; inhibition of 2-HG production, HT1080 cells; read-out: HT1080 IC50
Protocol: Cells (e.g., HT1080 or U87MG) and are grown in T125 flasks in DMEM containing 10% FBS, 1× penicillin/streptomycin and 500 ug/mL G418. They are harvested by trypsin and seeded into 96 well white bottom plates at a density of 5000 cell/well in 100 ul/well in DMEM with 10% FBS. No cells are plates in columns 1 and 12. Cells are incubated overnight at 37° C. in 5% CO2. The next day compounds are made up at 2× concentration and 100 ul are added to each cell well. The final concentration of DMSO is 0.2% and the DMSO control wells are plated in row G. The plates are then placed in the incubator for 48 hours. At 48 hours, 100 μl of media is removed from each well and analyzed by LC-MS for 2-HG concentrations. The cell plate is placed back in the incubator for another 24 hours. At 72 hours post compound addition, 10 mL/plate of Promega Cell Titer Glo reagent is thawed and mixed. The cell plate is removed from the incubator and allowed to equilibrate to room temperature. Then 100 ul of reagent is added to each well of media. The cell plate is then placed on an orbital shaker for 10 minutes and then allowed to sit at room temperature for 20 minutes. The plate is then read for luminescence with an integration time of 500 ms.
The IC50 for inhibition of 2-HG production (concentration of test compound to reduce 2HG production by 50% compared to control) in these two cell lines for various compounds of formula I is set forth in Table 4 above.

Sequence of IDH1 R132H (O75874 whole entry R132H): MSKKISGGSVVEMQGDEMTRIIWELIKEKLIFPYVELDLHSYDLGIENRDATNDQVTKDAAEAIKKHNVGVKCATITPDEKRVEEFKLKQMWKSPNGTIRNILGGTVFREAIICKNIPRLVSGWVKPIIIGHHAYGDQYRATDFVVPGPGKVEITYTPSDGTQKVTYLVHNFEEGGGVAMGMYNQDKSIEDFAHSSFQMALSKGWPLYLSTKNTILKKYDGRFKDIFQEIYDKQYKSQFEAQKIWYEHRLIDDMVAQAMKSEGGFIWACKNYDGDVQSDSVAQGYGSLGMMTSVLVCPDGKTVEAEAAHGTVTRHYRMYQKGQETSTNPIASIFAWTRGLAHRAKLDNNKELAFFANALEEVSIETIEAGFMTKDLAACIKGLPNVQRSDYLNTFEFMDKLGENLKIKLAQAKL

SMILES | pIC50 [1] | pIC50 [2]
C=Cc1ccnc(Nc2cc(C#N)c(N3CCN(C(=O)CC4CCC4)[C@H](C4CC4)C3)nc2C2CC2)c1 [Compound 817, (R)-2-(4-(2-cyclobutylacetyl)-3-cyclopropylpiperazin-1-yl)-6-cyclopropyl-5-((4-vinylpyridin-2-yl)amino)nicotinonitrile] | > 6.30 | > 6.30
C=Cc1cc(-c2cc(C#N)c(N3CCN(C(=O)C[C@H]4CCCO4)[C@H](C4CC4)C3)nc2C2CC2)ccn1 [Compound 822] | > 6.30 | > 6.30
C=CC(=O)N(c1cc(C#N)c(N2CCN(C(=O)CCOC)[C@H](C)C2)nc1C1CC1)c1ccnc2ccccc12 [Compound 712, (R)—N-(5-cyano-2-cyclopropyl-6-(4-(3-methoxypropanoyl)-3-methylpiperazin-1-yl)pyridin-3-yl)-N-(quinolin-4-yl)acryl amide] | > 6.30 | 5.00 to 6.00
N#Cc1ccc2c(-c3cc(C#N)c(N4CCN(C(=O)C5CC5)[C@H](C5CC5)C4)nc3C3CC3)cccc2n1 [Compound 563, (R)-5-(5-cyano-6-(4-(cyclopropanecarbonyl)-3-cyclopropylpiperazin-1-yl)-2-cyclopropylpyridin-3-yl)quinoline-2-carbonitrile] | > 6.30 | > 6.30
C[C@@H]1CN(c2nc(C3CC3)c(-c3ccnc(C#N)c3)cc2C#N)CCN1C(=O)C1CC1 [Compound 522, (R)-6-(4-(cyclopropanecarbonyl)-3-methylpiperazin-1-yl)-2-cyclopropyl-3,4′-bipyridine-2′,5-dicarbonitrile] | 6.00 to 6.30 | 5.00 to 6.00
C=Cc1cc(-c2cc(C#N)c(N3CCN(C(=O)CCO)[C@H](C4CC4)C3)nc2C2CC2)c2ccccc2n1 [Compound 571, (R)-6-cyclopropyl-2-(3-cyclopropyl-4-(3-hydroxypropanoyl)piperazin-1-yl)-5-(2-vinylquinolin-4-yl)nicotinonitrile] | > 6.30 | > 6.30
C=Cc1ccnc(-c2cc(C#N)c(N3CCN(C(=O)CCOC)[C@H](C)C3)nc2C2CC2)c1 [Compound 596, (R)-2′-cyclopropyl-6′-(4-(3-methoxypropanoyl)-3-methylpiperazin-1-yl)-4-vinyl-2,3′-bipyridine-5′-carbonitrile] | > 6.30 | > 6.30
Cc1cc(-c2cc(C#N)c(N3CCN(C(=O)C4CC4)[C@H](C4CC4)C3)nc2C2CC2)c2cccnc2n1 [Compound 557, (R)-2-(4-(cyclopropanecarbonyl)-3-cyclopropylpiperazin-1-yl)-6-cyclopropyl-5-(2-methyl-1,8-naphthyridin-4-yl)nicotinonitrile] | > 6.30 | 6.00 to 6.30
C=CC(=O)N1CCC=C(c2cc(C#N)c(N3CCN(C(=O)C4CC4)[C@H](C)C3)nc2C2CC2)C1 [Compound 575, (R)-5-(1-acryloyl-1,2,5,6-tetrahydropyridin-3-yl)-2-(4-(cyclopropanecarbonyl)-3-methylpiperazin-1-yl)-6-cyclopropylnicotinonitrile] | > 6.30 | > 6.30
C=Cc1cc(-c2cc(C#N)c(N3CCN(C(=O)C4(O)CC4)[C@H](C)C3)nc2C2CC2)ccn1 [Compound 664, (R)-2-cyclopropyl-6-(4-(1-hydroxycyclopropanecarbonyl)-3-methylpiperazin-1-yl)-2′-vinyl-3,4′-bipyridine-5-carbonitrile] | > 6.30 | > 6.30
CCO[C@H]1C[C@@H]1C(=O)N1CCN(c2nc(C3CC3)c(-c3cccc4cnccc34)cc2C#N)C[C@H]1C1CC1 [Compound 514, 6-cyclopropyl-2-((R)-3-cyclopropyl-4 ((1S,2S)-2-ethoxycyclopropanecarbonyl)piperazin-1-yl)-5-(isoquinolin-5-yl)nicotinonitrile] | > 6.30 | > 6.30
CCO[C@@H]1C[C@@H]1C(=O)N1CCN(c2nc(C3CC3)c(-c3cccc4cnccc34)cc2C#N)C[C@H]1C [Compound 517, 6-cyclopropyl-2-((R)-4-((1S,2R)-2-ethoxycyclopropanecarbonyl)-3-methylpiperazin-1-yl)-5-(isoquinolin-5-yl)nicotinonitrile] | > 6.30 | 6.00 to 6.30
C=CC(=O)N1CCC=C(c2c(C3CC3)nc(N3CCN(C(=O)CCOC)[C@H](C)C3)c(C#N)c2C)C1 [Compound 680, (R)-5-(1-acryloyl-1,2,5,6-tetrahydropyridin-3-yl)-6-cyclopropyl-2-(4-(3-methoxypropanoyl)-3-methylpiperazin-1-yl)-4-methylnicotinonitrile] | > 6.30 | > 6.30
N#Cc1cc(-c2cccc3c[n+]([O-])ccc23)c(C2CC2)nc1N1CCN(C(=O)C2CC2)[C@H](C2CC2)C1 [Compound 439, (R)-5-(5-cyano-6-(4-(cyclopropanecarbonyl)-3-cyclopropylpiperazin-1-yl)-2-cyclopropylpyridin-3-yl)isoquinoline 2-oxide] | > 6.30 | > 6.30
COCCC(=O)N1CCN(c2nc(C3CC3)c(Nc3ccnc(Cl)c3)cc2C#N)C[C@H]1C1CC1 [Compound 679, (R)-5-((2-chloropyridin-4-yl)amino)-6-cyclopropyl-2-(3-cyclopropyl-4-(3-methoxypropanoyl)piperazin-1-yl)nicotinonitrile] | > 6.30 | > 6.30
N#Cc1cc(-c2cnc3[nH]ccc3c2)c(C2CC2)nc1N1CCN(C(=O)CC(F)(F)F)[C@H](C2CC2)C1 [Compound 539, (R)-6-cyclopropyl-2-(3-cyclopropyl-4-(3,3,3-trifluoropropanoyl)piperazin-1-yl)-5-(1H-pyrrolo[2,3-b]pyridin-5-yl)nicotinonitrile] | > 6.30 | 5.00 to 6.00
C=Cc1ccc(-c2cc(C#N)c(N3CCN(C(=O)CCOC)[C@H](C)C3)nc2C2CC2)cn1 [Compound 620, (R)-2-cyclopropyl-6-(4-(3-methoxypropanoyl)-3-methylpiperazin-1-yl)-6′-vinyl-3,3′-bipyridine-5-carbonitrile] | > 6.30 | > 6.30
C=Cc1cc(-c2cc(C#N)c(N3CCN(C(=O)CN4CCC4=O)[C@H](C4CC4)C3)nc2C2CC2)ccn1 [Compound 818] | > 6.30 | > 6.30
CCS(=O)(=O)N1CCN(c2cc(C#N)c(N3CCN(C(=O)C4CC4)[C@H](C4CC4)C3)nc2C2CC2)CC1 [Compound 529, (R)-2-(4-(cyclopropanecarbonyl)-3-cyclopropylpiperazin-1-yl)-6-cyclopropyl-5-(4-(ethylsulfonyl)piperazin-1-yl)nicotinonitrile] | > 6.30 | 6.00 to 6.30
N#Cc1cc(Nc2ccnc3ccccc23)c(C2CC2)nc1N1CCN(C(=O)CC(F)(F)F)[C@H](C2CC2)C1 [Compound 560, (R)-6-cyclopropyl-2-(3-cyclopropyl-4-(3,3,3-trifluoropropanoyl)piperazin-1-yl)-5-(quinolin-4-ylamino)nicotinonitrile] | > 6.30 | 5.00 to 6.00
CCS(=O)(=O)N1CCN(c2cc(C#N)c(N3CCN(C(=O)CC(F)(F)F)[C@H](C4CC4)C3)nc2C2CC2)CC1 [Compound 559] | > 6.30 | 5.00 to 6.00
C=Cc1cc(-c2cc(C#N)c(N3CCN(C(=O)CCC=O)[C@H](C)C3)nc2C2CC2)ccn1 [Compound 607, (R)-2-cyclopropyl-6-(3-methyl-4-(4-oxobutanoyl)piperazin-1-yl)-2′-vinyl-[3,4′-bipyridine]-5-carbonitrile] | > 6.30 | > 6.30
C=Cc1cc(Nc2c(C3CC3)nc(N3CCN(C(=O)CCOC)[C@H](C(C)C)C3)c(C#N)c2C)ccn1 [Compound 807, (R)-6-cyclopropyl-2-(3-isopropyl-4-(3-methoxypropanoyl)piperazin-1-yl)-4-methyl-5-((2-vinylpyridin-4-yl)amino)nicotinonitrile] | > 6.30 | > 6.30
C=Cc1cc(-c2c(C3CC3)nc(N3CCN(C(=O)C[C@H]4CCO4)[C@H](C4CC4)C3)c(C#N)c2CC)ccn1 [Compound 823, 2-cyclopropyl-6-((R)-3-cyclopropyl-4-(2-((R)-oxetan-2-yl)acetyl)piperazin-1-yl)-4-ethyl-2′-vinyl-[3,4′-bipyridine]-5-carbonitrile] | > 6.30 | > 6.30
C=C(C)c1cc(-c2cc(C#N)c(N3CCN(C(=O)CCOC)[C@H](C)C3)nc2C2CC2)ncn1 [Compound 598, (R)-6-cyclopropyl-2-(4-(3-methoxypropanoyl)-3-methylpiperazin-1-yl)-5-(6-(prop-1-en-2-yl)pyrimidin-4-yl)nicotinonitrile] | > 6.30 | 6.00 to 6.30
C=C(CO)c1cc(-c2cc(C#N)c(N3CCN(C(=O)CCOC)[C@H](C)C3)nc2C2CC2)ccn1 [Compound 653, (R)-2-cyclopropyl-2′-(3-hydroxyprop-1-en-2-yl)-6-(4-(3-methoxypropanoyl)-3-methylpiperazin-1-yl)-[3,4′-bipyridine]-5-carbonitrile] | > 6.30 | > 6.30
